In patent US7470711B2, “Piperidinyl substituted cyclohexane-1,4-diamines” (Janssen Pharmaceutica N.V., priority 2005, dated 2008):
Like-named read-outs stand apart in the source and are kept apart here.

Experiments:
[1] = tested on: α1a and α1d subtypes over the α1b subtype; conditions: cited from earlier work
BPH patients = conditions: large clinical trials of BPH patients; cited from earlier work
[2] = tested on: normal rats and rats with bladder hypertrophy secondary to outlet obstruction; conditions: intrathecally administered; cited from earlier work
α1b-AR = target: T1, α1b-AR (Homo sapiens, UniProt P35368); experiment: α1-Adrenergic receptor radio-ligand binding assay, α1b subtype; conditions: 125I-HEAT, membranes of COS-7 cells transfected with α1b subtype, rt 1 hr; read-out: Receptor Binding, Ki α1b-AR
T1 construct: expressed in transfected cells; host or cells: COS-7 cells (membranes)
T1 sequence (P35368 1-520): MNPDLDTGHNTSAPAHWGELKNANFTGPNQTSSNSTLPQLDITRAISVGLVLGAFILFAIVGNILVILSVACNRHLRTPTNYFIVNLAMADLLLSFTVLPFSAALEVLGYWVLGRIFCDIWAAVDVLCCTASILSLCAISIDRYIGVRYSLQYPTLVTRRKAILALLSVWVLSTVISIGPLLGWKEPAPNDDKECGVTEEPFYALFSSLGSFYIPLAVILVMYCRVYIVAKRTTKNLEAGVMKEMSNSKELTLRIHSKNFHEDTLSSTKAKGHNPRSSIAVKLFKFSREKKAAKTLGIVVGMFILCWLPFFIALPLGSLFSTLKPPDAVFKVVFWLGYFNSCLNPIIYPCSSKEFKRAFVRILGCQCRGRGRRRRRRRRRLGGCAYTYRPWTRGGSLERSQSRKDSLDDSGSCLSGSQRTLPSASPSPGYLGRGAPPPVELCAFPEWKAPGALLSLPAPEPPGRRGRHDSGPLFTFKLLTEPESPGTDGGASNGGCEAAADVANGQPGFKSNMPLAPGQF
Description: (§1) Membranes were prepared from COS-7 cells (African Green monkey kidney SV40-transformed cells) that had been transfected with one of the three α1-AR subtypes (Genbank accession number for the α1a subtype: AF013261; Genbank accession number for the α1b subtype: NM000679; Genbank accession number for the α1d subtype: NM000678) using the following method: COS cells from ten 100 mm tissue culture plates were scraped into a 5 mL volume of TE (a mixture of 50 mM Tris-HCl, 5 mM EDTA, pH 7.4). […] The disrupted cells were centrifuged at 1000×g for 10 min at 4° C. Supernatants were centrifuged at 34,500×g for 20 min at 4° C. The membrane pellets were suspended in a 2 mL volume of TNE (a mixture of 50 mM Tris-HCl, 5 mM EDTA and 150 mM NaCl at pH 7.4). An aliquot of the membrane suspension was stored at −70° C. until use. The protein concentration was determined using the BioRad “DC” protein assay kit following membrane solubilization with Triton X-100.
(§2) Triplicate determinations of radio-ligand binding in the presence of increasing concentrations of testing compound were made. The reagents were added to 96-well polypropylene plate wells. […] The plate was incubated at rt for 1 hr. The contents of the wells were filtered through a glass filter (type C) (GF/C) membrane Unifilter plate (Packard Instruments) using the Packard Filtermate cell harvester. The filter plates were dried in a vacuum oven for 30 min at 40° C. 25 μL Microscint 20 liquid scintillation fluid (Packard Instuments) was added to each well. The radioactive content was analyzed in the TopCount microplate scintillation counter (Packard Instruments).

α1a-AR = target: T2, α1a-AR (Homo sapiens, UniProt P35348); experiment: α1-Adrenergic receptor radio-ligand binding assay, α1a subtype
T2 construct: expressed in transfected cells; host or cells: COS-7 cells (membranes)
T2 sequence (P35348 1-455 isoform P35348-4): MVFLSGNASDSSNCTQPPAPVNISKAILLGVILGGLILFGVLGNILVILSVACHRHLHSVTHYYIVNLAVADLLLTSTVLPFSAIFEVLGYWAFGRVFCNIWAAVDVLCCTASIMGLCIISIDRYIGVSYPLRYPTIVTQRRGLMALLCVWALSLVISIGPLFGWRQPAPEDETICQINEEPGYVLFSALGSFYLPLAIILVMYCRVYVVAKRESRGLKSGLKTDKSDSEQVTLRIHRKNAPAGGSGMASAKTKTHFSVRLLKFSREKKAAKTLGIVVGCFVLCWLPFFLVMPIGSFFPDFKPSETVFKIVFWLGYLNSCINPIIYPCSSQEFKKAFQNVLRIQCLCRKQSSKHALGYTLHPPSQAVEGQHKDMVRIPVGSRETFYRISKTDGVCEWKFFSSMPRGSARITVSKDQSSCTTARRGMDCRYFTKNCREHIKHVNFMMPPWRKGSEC
Description: as §1, §2

α1d-AR = target: T3, α1d-AR (Homo sapiens, UniProt P25100); experiment: α1-Adrenergic receptor radio-ligand binding assay, α1d subtype; conditions: 125I-HEAT, membranes of COS-7 cells transfected with α1d subtype, rt 1 hr; read-out: Receptor Binding, Ki α1d-AR
T3 construct: expressed in transfected cells; host or cells: COS-7 cells (membranes)
T3 sequence (P25100 1-572): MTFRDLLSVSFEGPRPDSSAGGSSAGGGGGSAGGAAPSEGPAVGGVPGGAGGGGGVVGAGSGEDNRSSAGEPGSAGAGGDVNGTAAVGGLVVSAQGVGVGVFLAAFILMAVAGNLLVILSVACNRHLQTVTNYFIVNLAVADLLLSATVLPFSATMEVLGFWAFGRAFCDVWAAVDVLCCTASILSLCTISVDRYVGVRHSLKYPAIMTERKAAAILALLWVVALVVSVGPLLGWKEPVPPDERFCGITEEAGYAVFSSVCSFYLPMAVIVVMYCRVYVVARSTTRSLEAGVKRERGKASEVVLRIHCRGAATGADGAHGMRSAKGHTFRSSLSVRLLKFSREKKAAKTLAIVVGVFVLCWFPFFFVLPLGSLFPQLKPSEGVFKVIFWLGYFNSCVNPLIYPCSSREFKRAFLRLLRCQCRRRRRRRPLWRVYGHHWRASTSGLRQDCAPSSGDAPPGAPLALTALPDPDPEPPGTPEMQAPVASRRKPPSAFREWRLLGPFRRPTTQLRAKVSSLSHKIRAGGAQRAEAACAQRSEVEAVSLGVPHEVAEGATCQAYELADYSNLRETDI
Description: as §1, §2

In the case of `CCOc1ccccc1OCCN[C@H](C)Cc1ccc(OC)c(S(N)(=O)=O)c1` [Tamsulosin], the “selectivity for the α1a and α1d subtypes over the α1b subtype” value [1] is listed as “about 15 fold”, the “effect on obstructive and irritative symptoms” value (BPH patients) is listed as “improvement in both obstructive and irritative symptoms” and the side effects seen (BPH patients) is listed as “cardiovascular and erectile dysfunction side effects were seen”.

In the case of `COc1cc2nc(N3CCN(C(=O)C4COc5ccccc5O4)CC3)nc(N)c2cc1OC` (stereo not drawn) [doxazosin], the micturition pressure [2] is given as “decrease in micturition pressure”.

Work on `COc1ccc(S(=O)(=O)N[C@H]2CC[C@@H](N3CCC(c4ccccc4OCC(F)F)CC3)CC2)cc1OC` [Cpd 29, N-cis-(4-{4-[2-(2,2-difluoro-ethoxy)-phenyl]-piperidin-1-yl}-cyclohexyl)-3,4-dimethoxy-benzenesulfonamide] yielded a Ki (α1b-AR) of 300 nM, a Ki (α1a-AR; 125I-HEAT, membranes of COS-7 cells transfected with α1a subtype, rt 1 hr, read-out: Receptor Binding, Ki α1a-AR) of 12 nM and a melting point of 219 °C. The Ki (α1d-AR) was 4.1 nM.

With `COc1ccc(Cl)cc1S(=O)(=O)N[C@H]1CC[C@H](N2CCC(c3ccccc3OCC(F)(F)F)CC2)CC1` [Cpd 18, 5-chloro-2-methoxy-N-trans-(4-{4-[2-(2,2,2-trifluoro-ethoxy)-phenyl]-piperidin-1-yl}-cyclohexyl)-benzenesulfonamide] the Ki (α1b-AR) was 703 nM, the Ki (α1a-AR) was 10.4 nM and the melting point was 197 °C. For the same molecule, the Ki (α1d-AR) was 35.9 nM.
